From patent US20240025862A1, “SUBSTITUTED N-PHENYLURACILS AND SALTS THEREOF, AND USE THEREOF AS HERBICIDAL ACTIVE SUBSTANCES” (Bayer Aktiengesellschaft, priority 2020, published 2024)
One block for each compound: values may come before it.

Legend:
Type in all cases: in vivo
[1] = test system: Abutilon theophrasti (ABUTH); assay: Post-emergence herbicidal action, greenhouse pot test; settings: rated visually after about 3 weeks vs untreated controls, 100% = plants have died
How it was run: (§1)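 Activity was scored by eye about 3 weeks after treatment against untreated plants, where 100% means dead plants and 0% means no difference. Plants at the one-leaf stage received a foliar spray of WP or EC formulations in water plus 0.5% additive (600 l/ha, up to 20 g/ha). Plants were grown in sandy loam pots in a greenhouse for 2–3 weeks before spraying.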

[2] = test system: Amaranthus retroflexus (AMARE); assay: as above; settings: rated visually after about 3 weeks vs untreated controls, 100% = plants have died
How it was run: as §1

[3] = test system: Pharbitis purpurea (PHBPU); assay: as above
How it was run: as §1

[4] = test system: Polygonum convolvulus (POLCO); assay: as above
How it was run: as §1

Stellaria media (STEME) = assay: as above
How it was run: as §1

Veronica persica (VERPE) = assay: as above
How it was run: as §1

Viola tricolor (VIOTR) = assay: as above
How it was run: as §1

[5] = test system: Alopecurus myosuroides (ALOMY); assay: Post-emergence herbicidal action, greenhouse pot test (also comparative test C); settings: rated visually after about 3 weeks vs untreated controls, 100% = plants have died
How it was run: (§2)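 Visual rating against untreated controls, about 3 weeks after spraying, from 0% (like control) to 100% (plants dead). Weeds were treated at the one-leaf stage, 2–3 weeks after sowing in sandy loam, with aqueous WP/EC spray containing 0.5% additive at 600 l/ha. Doses were ≤20 g/ha, or ≤5 g/ha for comparative test C.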

[6] = test system: Echinochloa crus-galli (ECHCG); assay: as above
How it was run: as §2

[7] = test system: Matricaria inodora (MATIN); assay: as above
How it was run: as §2

Setaria viridis (SETVI) = assay: as above
How it was run: as §2

Glycine max (GLXMA) = assay: Post-emergence crop plant compatibility, greenhouse pot test
How it was run: (§3)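 Values are visual % damage versus untreated controls (100% = plants died) about 3 weeks after treatment. Plants in sandy loam were sprayed at the one-leaf stage, 2–3 weeks after sowing, with aqueous WP/EC preparations plus 0.5% additive at 600 l/ha; a/b/c mark different dose levels.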

[8] = test system: Triticum aestivum (TRZAS); assay: as above; settings: vs untreated controls
How it was run: as §3

Zea mays (ZEAMX) = assay: as above; settings: vs untreated controls
How it was run: as §3

Oryza sativa (ORYSA) = assay: Post-emergence crop plant compatibility, greenhouse pot test (also comparative test C); settings: for Post-emergence action against ORYSA (crop plant compatibility): vs untreated controls
How it was run: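 Visual damage versus untreated plants (0% = like control, 100% = plants died) was scored about 3 weeks after a post-emergence spray in greenhouse pots. Treatment: one-leaf stage, WP or EC in water at 600 l/ha with 0.5% additive; a/b/c mark different dosages on the same crop.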

Avena fatua (AVEFA) = assay: Post-emergence herbicidal action, greenhouse pot test; settings: rated visually after about 3 weeks vs untreated controls, 100% = plants have died
How it was run: as §1

- Post-emergence action against GLXMA in % (Glycine max (GLXMA); 1.25 g/ha): 0%
- Post-emergence action against GLXMA in % (Glycine max (GLXMA); 5 g/ha): 10%
- Post-emergence action against GLXMA in % (Glycine max (GLXMA); 20 g/ha): 20%
- Post-emergence action against TRZAS (crop plant compatibility) ([8]; 1.25 g/ha): 20%
- Post-emergence action against TRZAS (crop plant compatibility) ([8]; 5 g/ha): 20%
- Post-emergence action against ZEAMX (crop plant compatibility) (Zea mays (ZEAMX); 1.25 g/ha): 10%
- Post-emergence action against ZEAMX (crop plant compatibility) (Zea mays (ZEAMX); 5 g/ha): 10%
- Post-emergence action against ZEAMX (crop plant compatibility) (Zea mays (ZEAMX); 20 g/ha): 20%
- Post-emergence action against ORYSA (crop plant compatibility) (Oryza sativa (ORYSA); 1.25 g/ha): 10%
- Post-emergence action against ORYSA (crop plant compatibility) (Oryza sativa (ORYSA); 5 g/ha): 10%
Compound: COCCOC(=O)C(C)Oc1ccccc1Sc1cc(-n2c(=O)cc(C(F)(F)F)n(C)c2=O)c(F)cc1Cl (racemic) [I.2-1, 2-Methoxyethyl (2RS)-2-[2-({2-chloro-4-fluoro-5-[3-methyl-2,6-dioxo-4-(trifluoromethyl)-3,6-dihydropyrimidin-1(2H)-yl]phenyl}sulfanyl)phenoxy]propanoate]
- pest or weed control at 5 g/ha ([1]; Abutilon theophrasti, 504 h, 5 g/ha, read-out: Post-emergence action at 5 g/ha against ABUTH in %): 100%
- pest or weed control at 20 g/ha ([1]; Abutilon theophrasti, 504 h, 20 g/ha, read-out: Post-emergence action at 20 g/ha against ABUTH in %): 100%
- pest or weed control at 1.25 g/ha ([2]; Amaranthus retroflexus, 504 h, 1.25 g/ha, read-out: Post-emergence action at 1.25 g/ha against AMARE in %): 100%
- pest or weed control at 20 g/ha ([2]; Amaranthus retroflexus, 504 h, 20 g/ha, read-out: Post-emergence action at 20 g/ha against AMARE in %): 100%
- pest or weed control at 1.25 g/ha ([3]; Ipomoea purpurea, 504 h, dosage 1.25 g/ha, read-out: Post-emergence action against PHBPU in %): 100%
- pest or weed control at 5 g/ha ([3]; Ipomoea purpurea, 504 h, dosage 5 g/ha, read-out: Post-emergence action against PHBPU in %): 100%
- pest or weed control at 20 g/ha ([3]; Ipomoea purpurea, 504 h, dosage 20 g/ha, read-out: Post-emergence action against PHBPU in %): 100%
- pest or weed control at 5 g/ha ([4]; Fallopia convolvulus, 504 h, dosage 5 g/ha, read-out: Post-emergence action against POLCO in %): 80%
- pest or weed control at 20 g/ha ([4]; Fallopia convolvulus, 504 h, dosage 20 g/ha, read-out: Post-emergence action against POLCO in %): 100%
- Post-emergence action against STEME (Stellaria media (STEME); 1.25 g/ha): 80%
- Post-emergence action against STEME (Stellaria media (STEME); 5 g/ha): 100%
- Post-emergence action against STEME (Stellaria media (STEME); 20 g/ha): 100%
- pest or weed control at 1.25 g/ha (Veronica persica (VERPE); Veronica persica, 504 h, 1.25 g/ha, read-out: Post-emergence action against VERPE): 90%
- pest or weed control at 5 g/ha (Veronica persica (VERPE); Veronica persica, 504 h, 5 g/ha, read-out: Post-emergence action against VERPE): 100%
- pest or weed control at 20 g/ha (Veronica persica (VERPE); Veronica persica, 504 h, 20 g/ha, read-out: Post-emergence action against VERPE): 100%
- pest or weed control at 1.25 g/ha (Viola tricolor (VIOTR); Viola tricolor, 504 h, 1.25 g/ha, read-out: Post-emergence action against VIOTR): 100%
- pest or weed control at 5 g/ha (Viola tricolor (VIOTR); Viola tricolor, 504 h, 5 g/ha, read-out: Post-emergence action against VIOTR): 100%
- pest or weed control at 20 g/ha (Viola tricolor (VIOTR); Viola tricolor, 504 h, 20 g/ha, read-out: Post-emergence action against VIOTR): 100%
- pest or weed control at 20 g/ha ([5]; Alopecurus myosuroides, 504 h, 20 g/ha, read-out: Post-emergence action at 20 g/ha against ALOMY in %): 80%
- pest or weed control at 20 g/ha ([6]; Echinochloa crus-galli, 504 h, dosage 20 g/ha, read-out: Post-emergence action against ECHCG in %): 100%
- pest or weed control at 5 g/ha ([7]; Tripleurospermum inodorum, 504 h, dosage 5 g/ha, read-out: Post-emergence action against MATIN in %): 80%
- pest or weed control at 20 g/ha ([7]; Tripleurospermum inodorum, 504 h, dosage 20 g/ha, read-out: Post-emergence action against MATIN in %): 100%
- pest or weed control at 20 g/ha (Setaria viridis (SETVI); Setaria viridis, 504 h, 20 g/ha, read-out: Post-emergence action against SETVI): 100%
- pest or weed control at 1.25 g/ha (Setaria viridis (SETVI); Setaria viridis, 504 h, dosage 1.25 g/ha, read-out: Post-emergence action against SETVI in %): 100%
- pest or weed control at 5 g/ha (Setaria viridis (SETVI); Setaria viridis, 504 h, dosage 5 g/ha, read-out: Post-emergence action against SETVI in %): 100%

- Post-emergence action against GLXMA in % (Glycine max (GLXMA); 1.25 g/ha): 0%
- Post-emergence action against TRZAS (crop plant compatibility) ([8]; 1.25 g/ha): 0%
- Post-emergence action against ZEAMX (crop plant compatibility) (Zea mays (ZEAMX); 1.25 g/ha): 0%
- Post-emergence action against ZEAMX (crop plant compatibility) (Zea mays (ZEAMX); 5 g/ha): 0%
- Post-emergence action against ZEAMX (crop plant compatibility) (Zea mays (ZEAMX); 20 g/ha): 20%
- Post-emergence action against ORYSA (crop plant compatibility) (Oryza sativa (ORYSA); 1.25 g/ha): 0%
- Post-emergence action against ORYSA (crop plant compatibility) (Oryza sativa (ORYSA); 5 g/ha): 0%
- Post-emergence action against ORYSA in % (Oryza sativa (ORYSA); 20 g/ha, crop plant compatibility): 0%
Compound: Cn1c(C(F)(F)F)cc(=O)n(-c2cc(Oc3ccccc3OCC(=O)OCc3ccccn3)c(C#N)cc2F)c1=O [I.9-276]
- Post-emergence action at 1.25 g/ha against ABUTH in % ([1]; 1.25 g/ha): 100%
- Post-emergence action at 5 g/ha against ABUTH in % ([1]; 5 g/ha): 100%
- Post-emergence action at 20 g/ha against ABUTH in % ([1]; 20 g/ha): 100%
- Post-emergence action at 1.25 g/ha against AMARE in % ([2]; 1.25 g/ha): 100%
- Post-emergence action at 5 g/ha against AMARE in % ([2]; 5 g/ha): 100%
- Post-emergence action at 20 g/ha against AMARE in % ([2]; 20 g/ha): 100%
- Post-emergence action at 5 g/ha against AVEFA in % (Avena fatua (AVEFA); 5 g/ha): 80%
- Post-emergence action at 20 g/ha against AVEFA in % (Avena fatua (AVEFA); 20 g/ha): 90%
- Post-emergence action against PHBPU in % ([3]; dosage 1.25 g/ha): 100%
- Post-emergence action against PHBPU in % ([3]; dosage 5 g/ha): 100%
- Post-emergence action against PHBPU in % ([3]; dosage 20 g/ha): 100%
- Post-emergence action against POLCO in % ([4]; dosage 20 g/ha): 100%
- Post-emergence action against VERPE (Veronica persica (VERPE); 1.25 g/ha): 80%
- Post-emergence action against VERPE (Veronica persica (VERPE); 5 g/ha): 100%
- Post-emergence action against VERPE (Veronica persica (VERPE); 20 g/ha): 100%
- Post-emergence action against VIOTR (Viola tricolor (VIOTR); 1.25 g/ha): 100%
- Post-emergence action against VIOTR (Viola tricolor (VIOTR); 5 g/ha): 100%
- Post-emergence action against VIOTR (Viola tricolor (VIOTR); 20 g/ha): 100%
- Post-emergence action at 5 g/ha against ALOMY in % ([5]; 5 g/ha): 100%
- Post-emergence action at 20 g/ha against ALOMY in % ([5]; 20 g/ha): 100%
- Post-emergence action against ECHCG in % ([6]; dosage 5 g/ha): 100%
- Post-emergence action against ECHCG in % ([6]; dosage 20 g/ha): 100%
- Post-emergence action against MATIN in % ([7]; dosage 5 g/ha): 100%
- Post-emergence action against MATIN in % ([7]; dosage 20 g/ha): 100%
- Post-emergence action against SETVI (Setaria viridis (SETVI); 20 g/ha): 100%
- Post-emergence action against SETVI in % (Setaria viridis (SETVI); dosage 1.25 g/ha): 100%
- Post-emergence action against SETVI in % (Setaria viridis (SETVI); dosage 5 g/ha): 100%
